Experimental data from PubChem BioAssay (NCI).
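Interpolation was linear, between the two tested concentrations surrounding the appropriate level; five concentrations were tested over 48 hours in 96-well plates. At the GI50, growth is halved. TGI: concentration producing complete growth inhibition.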

Assays:
Experiment in all cases: DTP human tumour cell line panel, 48 h
[1] = tested on: PC-3 prostate
[2] = tested on: SN12C renal
[3] = tested on: HOP-62 NSCLC
[4] = tested on: A498 renal
[5] = tested on: MCF7 breast
[6] = tested on: A549 NSCLC
[7] = tested on: BT-549 breast
[8] = tested on: MALME-3M melanoma
[9] = tested on: OVCAR-4 ovarian
[10] = tested on: RPMI-8226 leukemia
[11] = tested on: NCI-H23 lung
[12] = tested on: MDA-MB-468 breast
[13] = tested on: RXF 393 renal
[14] = tested on: IGROV1 ovarian
[15] = tested on: UACC-62 melanoma
[16] = tested on: NCI-H226 lung
[17] = tested on: M14 melanoma
[18] = tested on: SNB-75 CNS
[19] = tested on: HCT-15 colon
[20] = tested on: OVCAR-5 ovarian
[21] = tested on: CAKI-1 renal
[22] = tested on: MDA-MB-231 breast
[23] = tested on: HS 578T breast
[24] = tested on: UACC-257 melanoma
[25] = tested on: EKVX NSCLC
[26] = tested on: NCI/ADR-RES ovarian
[27] = tested on: HCC-2998 colon
[28] = tested on: SR leukemia
[29] = tested on: KM12 colon
[30] = tested on: MOLT-4 leukemia
[31] = tested on: MDA-MB-435
[32] = tested on: SF-539 CNS
[33] = tested on: DU-145 prostate
[34] = tested on: UO-31 renal
[35] = tested on: HOP-92 NSCLC
[36] = tested on: SK-MEL-28 melanoma
[37] = tested on: CCRF-CEM leukemia
[38] = tested on: TK-10 renal
[39] = tested on: HT29 colon
[40] = tested on: SK-MEL-2 melanoma
[41] = tested on: OVCAR-3 ovarian
[42] = tested on: NCI-H460 lung
[43] = tested on: SK-MEL-5 melanoma
[44] = tested on: NCI-H522 lung
[45] = tested on: SW-620 colon
[46] = tested on: SNB-19 CNS
[47] = tested on: HL-60(TB) leukemia
[48] = tested on: K-562 leukemia

CN1CCN(c2ccc(Nc3nc(N4CCN(S(=O)(=O)c5ccc(F)cc5)CC4)c4sccc4n3)cc2)CC1
GI50 [1]: 2.13 µM
TGI [1]: 5.11 µM
GI50 [2]: 1.73 µM
TGI [2]: 3.25 µM
GI50 [3]: 11.5 µM
TGI [3]: > 100 µM
GI50 [4]: 19.2 µM
TGI [4]: 34.5 µM
GI50 [5]: 1.66 µM
TGI [5]: 3.18 µM
GI50 [6]: 1.87 µM
TGI [6]: 4.44 µM
GI50 [7]: 17.8 µM
TGI [7]: 53.1 µM
GI50 [8]: 1.72 µM
TGI [8]: 3.15 µM
GI50 [9]: 2 µM
TGI [9]: 4.2 µM
GI50 [10]: 2.28 µM
TGI [10]: 4.98 µM
GI50 [11]: 4.35 µM
TGI [11]: 18.1 µM
GI50 [12]: 1.5 µM
TGI [12]: 2.89 µM
GI50 [13]: 1.61 µM
TGI [13]: 3.14 µM
GI50 [14]: 2.19 µM
TGI [14]: 4.74 µM
GI50 [15]: 1.71 µM
TGI [15]: 3.15 µM
GI50 [16]: 18.7 µM
TGI [16]: 48.2 µM
GI50 [17]: 1.84 µM
TGI [17]: 3.56 µM
GI50 [18]: 11 µM
TGI [18]: 26.8 µM
GI50 [19]: 1.67 µM
TGI [19]: 3.15 µM
GI50 [20]: 2.36 µM
TGI [20]: 5.94 µM
GI50 [21]: 2.98 µM
TGI [21]: 10.1 µM
GI50 [22]: 1.9 µM
TGI [22]: 3.4 µM
GI50 [23]: 17.8 µM
TGI [23]: 55.4 µM
GI50 [24]: 1.58 µM
TGI [24]: 3.19 µM
GI50 [25]: 3.95 µM
TGI [25]: 22.9 µM
GI50 [26]: 2 µM
TGI [26]: 4.42 µM
GI50 [27]: 1.69 µM
TGI [27]: 3.23 µM
GI50 [28]: 2.01 µM
TGI [28]: 4.85 µM
GI50 [29]: 2.02 µM
TGI [29]: 3.97 µM
GI50 [30]: 2.45 µM
TGI [30]: 6.05 µM
GI50 [31]: 1.77 µM
TGI [31]: 3.26 µM
GI50 [32]: 1.75 µM
TGI [32]: 3.18 µM
GI50 [33]: 1.97 µM
TGI [33]: 3.76 µM
GI50 [34]: 13.4 µM
TGI [34]: 29.1 µM
GI50 [35]: 7.3 µM
TGI [35]: 24.1 µM
GI50 [36]: 1.68 µM
TGI [36]: 3.15 µM
GI50 [37]: 2.39 µM
TGI [37]: 6.78 µM
GI50 [38]: 2.61 µM
TGI [38]: 7.37 µM
GI50 [39]: 1.83 µM
TGI [39]: 3.6 µM
GI50 [40]: 19.7 µM
TGI [40]: 39.2 µM
GI50 [41]: 1.91 µM
TGI [41]: 3.51 µM
GI50 [42]: 1.86 µM
TGI [42]: 3.45 µM
GI50 [43]: 1.68 µM
TGI [43]: 3.05 µM
GI50 [44]: 1.64 µM
TGI [44]: 3.12 µM
GI50 [45]: 1.8 µM
TGI [45]: 3.33 µM
GI50 [46]: 2.64 µM
TGI [46]: 8.71 µM
GI50 [47]: 2.07 µM
TGI [47]: 4.25 µM
GI50 [48]: 2.13 µM
TGI [48]: 5.73 µM
